Data from PubChem BioAssay (NCI).
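GI50: concentration for 50% inhibition of growth. At the TGI there is no net growth.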

What was measured:
Test in all cases: inhibition of tumour cell growth, NCI panel, 384-well format
[1] = test system: HCT-15 colon
[2] = test system: HS 578T breast
[3] = test system: HOP-92 NSCLC
[4] = test system: T-47D breast
[5] = test system: CAKI-1 renal
[6] = test system: PC-3 prostate
[7] = test system: RXF 393 renal
[8] = test system: NCI/ADR-RES ovarian
[9] = test system: SK-OV-3 ovarian
[10] = test system: ACHN renal
[11] = test system: UACC-62 melanoma
[12] = test system: UACC-257 melanoma
[13] = test system: OVCAR-4 ovarian
[14] = test system: NCI-H322M lung
[15] = test system: MOLT-4 leukemia
[16] = test system: SNB-75 CNS
[17] = test system: CCRF-CEM leukemia
[18] = test system: SF-268 CNS
[19] = test system: OVCAR-8 ovarian
[20] = test system: HCC-2998 colon
[21] = test system: NCI-H460 NSCLC
[22] = test system: M14 melanoma
[23] = test system: OVCAR-5 ovarian
[24] = test system: A549 NSCLC
[25] = test system: MCF7 breast
[26] = test system: SNB-19 CNS
[27] = test system: DU-145 prostate
[28] = test system: HOP-62 NSCLC
[29] = test system: 786-0 renal

For `Cn1cncc1[C@@](N)(c1ccc(Cl)cc1)c1ccc2c(c1)c(-c1cccc(Cl)c1)cc(=O)n2C`, the GI50 [1] was 884 nM, the TGI [1] was 5180 nM and the GI50 [2] was 1460 nM. For the same compound, the TGI [2] was 4620 nM, the GI50 [3] was 271 nM and the TGI [3] was 3620 nM. It also gave a GI50 [4] of 64.5 nM, a TGI [4] of 3670 nM and a GI50 [5] of 2110 nM. It also gave a TGI [5] of 11900 nM, a GI50 [6] of 1420 nM and a TGI [6] of 6970 nM. It also gave a GI50 [7] of 472 nM, a TGI [7] of 10100 nM and a GI50 [8] of 1620 nM. It also gave a TGI [8] of 5510 nM, a GI50 [9] of 1260 nM and a TGI [9] of 8170 nM. The GI50 [10] was 1280 nM, the TGI [10] was 5310 nM and the GI50 [11] was 173 nM. It also gave a TGI [11] of 2750 nM, a GI50 [12] of 1380 nM and a TGI [12] of 4880 nM. It also gave a GI50 [13] of 1130 nM, a TGI [13] of 5260 nM and a GI50 [14] of 2060 nM. It also gave a TGI [14] of 15800 nM, a GI50 [15] of under 10 nM and a TGI [15] of 57.9 nM. The GI50 [16] was 1350 nM, the TGI [16] was 4960 nM and the GI50 [17] was under 10 nM. The TGI [17] was 1250 nM, the GI50 [18] was 1780 nM and the TGI [18] was 11400 nM. It also gave a GI50 [19] of 2410 nM, a TGI [19] of 12300 nM and a GI50 [20] of 1270 nM. For the same compound, the TGI [20] was 3230 nM, the GI50 [21] was 391 nM and the TGI [21] was 6170 nM. The GI50 [22] was 22 nM, the TGI [22] was 2210 nM and the GI50 [23] was 2490 nM. The TGI [23] was 12200 nM, the GI50 [24] was 1640 nM and the TGI [24] was 11100 nM. The GI50 [25] was 1080 nM, the TGI [25] was 3660 nM and the GI50 [26] was 2330 nM. The TGI [26] was 13200 nM, the GI50 [27] was 2400 nM and the TGI [27] was 12100 nM. It also gave a GI50 [28] of 1900 nM, a TGI [28] of 8680 nM and a GI50 [29] of 1160 nM. The TGI [29] was 8760 nM.
